Patent publication US20260317344A1, “EGFR INHIBITORS FOR TREATING DISEASE” (BLOSSOMHILL THERAPEUTICS, INC., priority 2023, published 2026)

Experiments:
[1] = tested on: HCC827 cells; assay: 5-Day CellTiter Glo (CTG) cell proliferation assay, HCC827; type: cell-based; settings: Homo sapiens; HCC827 cells (d746-750 EGFR), 5-day CTG proliferation, 120 hours; read-out: HCC827 IC50
Method in brief: (§1)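 Luminescent ATP signal (CellTiter-Glo 2.0) after 120 hours of compound exposure gave IC50 values. PC-9 and HCC827 harbour EGFR d746-750; NCI-H1975 harbours L858R/T790M.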

[2] = target: EGFR (L858R/T790M/C797S) (Homo sapiens, UniProt P00533, C797S/L858R/T790M); assay: HotSpot radiometric kinase assay, inhibition of EGFR L858R/T790M/C797S mutant; type: biochemical; settings: 33P ATP, room temperature, 120 m
Method in brief: (§2)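 Kinase/substrate pairs in 20 mM HEPES pH 7.5, 10 mM MgCl2, 1 mM EGTA, 0.02% Brij35, 0.02 mg/ml BSA, 0.1 mM Na3VO4, 2 mM DTT, 1% DMSO, preincubated ~20 min with compound. Reaction started with ATP/33P-ATP ([…]), run 120 min at room temperature; phosphorylation read by P81 filter binding, IC50 from curve fits.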

[3] = target: T1, pEGFR, A431 cells (wildtype EGFR) (Homo sapiens, UniProt P00533); assay: Cellular EGFR phosphorylation assay (LANCE Ultra TR-FRET) in A431 cells; type: cell-based; settings: 4 hours at 37° C., 40 ng/mL EGF for the final 10 minutes, read-out: A431 pEGFR IC50
T1 construct: pEGFR (Tyr1068) TR-FRET
Method in brief: (§3)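 Cells were treated with compound for 4 h at 37 °C as a 9-point, 3-fold titration; A431 cells were stimulated with 40 ng/mL EGF for the final 10 min. Phospho-EGFR (Tyr1068) in lysates was read by TR-FRET after 4-6 h antibody incubation, and IC50 values were fitted.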

[4] = target: EGFR (D770_N771insNPG) (Homo sapiens, UniProt P00533, INS770NPG); assay: HotSpot radiometric kinase assay, inhibition of EGFR (D770_N771insNPG) mutant; type: biochemical; settings: 33P ATP, room temperature, 120 m
Method in brief: as §2

[5] = tested on: BaF3 cells with engineered EGFR L858R/C797S; assay: 3-Day CellTiter Glo (CTG) cell proliferation assay, BaF3 EGFR L858R/C797S; type: cell-based; settings: Mus musculus, 3-day CTG proliferation, 72 hours
Method in brief: (§4)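 Growth inhibition in transgene-bearing BaF3 lines was scored after three days of compound treatment by CellTiter-Glo 2.0 ATP luminescence, yielding IC50 values.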

[6] = target: T2, pEGFR, NCI-H1975 cells (L858R/T790M EGFR) (Homo sapiens, UniProt P00533, L858R/T790M); assay: Cellular EGFR phosphorylation assay (LANCE Ultra TR-FRET) in NCI-H1975 cells; type: cell-based; settings: 4 hours at 37° C., read-out: H1975 pEGFR IC50
T2 construct: pEGFR (Tyr1068) TR-FRET
Method in brief: as §3

[7] = target: EGFR (D746-750) (Homo sapiens, UniProt P00533, DEL746-750); assay: HotSpot radiometric kinase assay, inhibition of EGFR 746-750 mutant; type: biochemical; settings: 33P ATP, room temperature, 120 m
Method in brief: as §2

[8] = target: T3, pEGFR, PC-9 cells (d746-750 EGFR) (Homo sapiens, UniProt P00533, DEL746-750); assay: Cellular EGFR phosphorylation assay (LANCE Ultra TR-FRET) in PC-9 cells; type: cell-based; settings: 4 hours at 37° C., read-out: PC-9 pEGFR IC50
T3 construct: pEGFR (Tyr1068) TR-FRET
Method in brief: as §3

[9] = tested on: BaF3 cells with engineered EGFR d746-750/T790M; assay: 3-Day CellTiter Glo (CTG) cell proliferation assay, BaF3 EGFR d746-750/T790M; type: cell-based; settings: Mus musculus; BaF3 EGFR d746-750/T790M cells, 3-day CTG proliferation, 72 hours
Method in brief: as §4

[10] = tested on: NCI-H1975 cells; assay: 5-Day CellTiter Glo (CTG) cell proliferation assay, NCI-H1975; type: cell-based; settings: Homo sapiens; NCI-H1975 cells (L858R/T790M EGFR), 5-day CTG proliferation, 120 hours; read-out: H1975 IC50
Method in brief: as §1

[11] = target: EGFR (D746-750/C797S) (Homo sapiens, UniProt P00533, C797S/DEL746-750); assay: HotSpot radiometric kinase assay, inhibition of EGFR 746-750/C797S mutant; type: biochemical; settings: 33P ATP, room temperature, 120 m
Method in brief: as §2

[12] = tested on: PC-9 cells; assay: 5-Day CellTiter Glo (CTG) cell proliferation assay, PC-9; type: cell-based; settings: Homo sapiens; PC-9 cells (d746-750 EGFR), 5-day CTG proliferation, 120 hours; read-out: PC-9 IC50
Method in brief: as §1

[13] = tested on: BaF3 cells with engineered EGFR L858R/T790M/C797S; assay: 3-Day CellTiter Glo (CTG) cell proliferation assay, BaF3 EGFR L858R/T790M/C797S; type: cell-based; settings: Mus musculus, 3-day CTG proliferation, 72 hours
Method in brief: as §4

EGFR (D770_N771insNPG), sequence (P00533 with tags, fused parts or gaps INS770NPG limits assumed): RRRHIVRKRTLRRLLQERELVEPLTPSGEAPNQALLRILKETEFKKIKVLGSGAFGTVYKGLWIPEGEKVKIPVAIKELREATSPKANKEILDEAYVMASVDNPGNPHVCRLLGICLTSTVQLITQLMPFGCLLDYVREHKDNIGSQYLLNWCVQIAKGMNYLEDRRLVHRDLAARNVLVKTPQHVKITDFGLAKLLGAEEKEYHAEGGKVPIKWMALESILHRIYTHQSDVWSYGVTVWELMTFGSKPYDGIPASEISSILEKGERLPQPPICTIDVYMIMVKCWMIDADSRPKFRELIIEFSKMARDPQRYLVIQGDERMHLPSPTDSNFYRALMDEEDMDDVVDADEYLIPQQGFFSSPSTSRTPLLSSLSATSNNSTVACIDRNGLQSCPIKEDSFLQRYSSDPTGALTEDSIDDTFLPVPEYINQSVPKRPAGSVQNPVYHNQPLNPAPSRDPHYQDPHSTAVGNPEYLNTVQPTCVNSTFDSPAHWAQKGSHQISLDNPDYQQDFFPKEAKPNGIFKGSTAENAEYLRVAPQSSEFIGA
T2 sequence (P00533 25-1210 T790M/L858R): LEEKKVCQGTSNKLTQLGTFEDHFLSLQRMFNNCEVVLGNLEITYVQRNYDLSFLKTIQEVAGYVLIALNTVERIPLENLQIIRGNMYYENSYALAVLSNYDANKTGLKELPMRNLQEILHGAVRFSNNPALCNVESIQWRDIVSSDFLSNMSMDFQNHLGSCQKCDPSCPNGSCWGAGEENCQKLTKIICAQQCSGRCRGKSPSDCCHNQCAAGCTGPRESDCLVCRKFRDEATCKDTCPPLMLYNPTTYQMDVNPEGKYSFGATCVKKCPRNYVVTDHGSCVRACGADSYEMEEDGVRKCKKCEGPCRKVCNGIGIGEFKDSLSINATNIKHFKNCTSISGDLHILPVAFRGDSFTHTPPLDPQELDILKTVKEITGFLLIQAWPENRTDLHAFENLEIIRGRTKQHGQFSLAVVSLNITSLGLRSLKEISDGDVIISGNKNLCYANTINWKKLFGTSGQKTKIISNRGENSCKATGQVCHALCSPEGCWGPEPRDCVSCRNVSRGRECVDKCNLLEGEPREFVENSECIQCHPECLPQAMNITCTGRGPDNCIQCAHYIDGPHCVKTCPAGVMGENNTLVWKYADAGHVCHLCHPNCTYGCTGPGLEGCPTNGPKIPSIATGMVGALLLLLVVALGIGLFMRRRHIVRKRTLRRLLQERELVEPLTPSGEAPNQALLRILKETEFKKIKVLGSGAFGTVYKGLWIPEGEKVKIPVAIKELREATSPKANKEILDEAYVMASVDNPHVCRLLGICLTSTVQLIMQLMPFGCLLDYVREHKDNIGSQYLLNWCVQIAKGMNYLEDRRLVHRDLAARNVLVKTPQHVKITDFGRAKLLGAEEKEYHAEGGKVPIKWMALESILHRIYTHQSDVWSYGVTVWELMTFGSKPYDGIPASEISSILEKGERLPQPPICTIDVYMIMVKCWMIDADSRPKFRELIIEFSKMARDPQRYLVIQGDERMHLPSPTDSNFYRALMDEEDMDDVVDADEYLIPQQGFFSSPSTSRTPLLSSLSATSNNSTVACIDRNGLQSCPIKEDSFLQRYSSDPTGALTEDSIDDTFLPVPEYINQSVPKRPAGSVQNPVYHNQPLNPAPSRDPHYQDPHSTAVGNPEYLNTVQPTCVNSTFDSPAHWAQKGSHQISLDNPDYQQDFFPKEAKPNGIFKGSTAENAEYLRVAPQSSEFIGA
EGFR (L858R/T790M/C797S), sequence (P00533 25-1210 T790M/C797S/L858R): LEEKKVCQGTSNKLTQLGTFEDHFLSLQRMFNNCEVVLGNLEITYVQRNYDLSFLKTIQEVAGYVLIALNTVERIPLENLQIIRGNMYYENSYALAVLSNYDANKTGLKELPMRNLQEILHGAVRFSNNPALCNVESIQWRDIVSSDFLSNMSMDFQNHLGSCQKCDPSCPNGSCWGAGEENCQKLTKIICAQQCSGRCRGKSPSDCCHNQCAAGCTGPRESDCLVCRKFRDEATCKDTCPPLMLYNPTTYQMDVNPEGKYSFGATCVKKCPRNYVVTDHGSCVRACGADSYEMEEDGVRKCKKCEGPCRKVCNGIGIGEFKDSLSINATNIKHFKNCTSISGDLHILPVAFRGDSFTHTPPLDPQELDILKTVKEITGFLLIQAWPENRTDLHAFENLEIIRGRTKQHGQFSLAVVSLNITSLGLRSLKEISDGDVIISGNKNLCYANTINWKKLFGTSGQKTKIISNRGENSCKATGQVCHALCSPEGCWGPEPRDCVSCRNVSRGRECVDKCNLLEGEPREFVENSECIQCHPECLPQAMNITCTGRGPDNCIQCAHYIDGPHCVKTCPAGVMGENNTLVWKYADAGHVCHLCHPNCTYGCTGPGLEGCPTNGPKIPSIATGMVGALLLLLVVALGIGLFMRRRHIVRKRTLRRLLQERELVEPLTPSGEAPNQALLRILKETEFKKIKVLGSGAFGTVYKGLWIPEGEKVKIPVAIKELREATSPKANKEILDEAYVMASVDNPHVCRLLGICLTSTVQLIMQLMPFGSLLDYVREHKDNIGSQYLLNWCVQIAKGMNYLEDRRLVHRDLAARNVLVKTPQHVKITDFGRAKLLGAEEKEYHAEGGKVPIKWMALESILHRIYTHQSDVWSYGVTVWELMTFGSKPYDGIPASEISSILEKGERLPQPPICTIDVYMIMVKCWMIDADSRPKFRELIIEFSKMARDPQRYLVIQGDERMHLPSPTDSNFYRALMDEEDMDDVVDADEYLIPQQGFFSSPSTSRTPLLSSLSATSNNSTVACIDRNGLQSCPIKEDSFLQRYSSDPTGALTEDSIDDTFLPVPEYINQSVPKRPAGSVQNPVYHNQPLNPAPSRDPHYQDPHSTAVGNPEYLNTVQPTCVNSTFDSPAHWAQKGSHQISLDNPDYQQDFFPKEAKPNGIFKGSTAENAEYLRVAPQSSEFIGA
EGFR (D746-750/C797S), sequence (P00533 with tags, fused parts or gaps DEL746-750/C797S): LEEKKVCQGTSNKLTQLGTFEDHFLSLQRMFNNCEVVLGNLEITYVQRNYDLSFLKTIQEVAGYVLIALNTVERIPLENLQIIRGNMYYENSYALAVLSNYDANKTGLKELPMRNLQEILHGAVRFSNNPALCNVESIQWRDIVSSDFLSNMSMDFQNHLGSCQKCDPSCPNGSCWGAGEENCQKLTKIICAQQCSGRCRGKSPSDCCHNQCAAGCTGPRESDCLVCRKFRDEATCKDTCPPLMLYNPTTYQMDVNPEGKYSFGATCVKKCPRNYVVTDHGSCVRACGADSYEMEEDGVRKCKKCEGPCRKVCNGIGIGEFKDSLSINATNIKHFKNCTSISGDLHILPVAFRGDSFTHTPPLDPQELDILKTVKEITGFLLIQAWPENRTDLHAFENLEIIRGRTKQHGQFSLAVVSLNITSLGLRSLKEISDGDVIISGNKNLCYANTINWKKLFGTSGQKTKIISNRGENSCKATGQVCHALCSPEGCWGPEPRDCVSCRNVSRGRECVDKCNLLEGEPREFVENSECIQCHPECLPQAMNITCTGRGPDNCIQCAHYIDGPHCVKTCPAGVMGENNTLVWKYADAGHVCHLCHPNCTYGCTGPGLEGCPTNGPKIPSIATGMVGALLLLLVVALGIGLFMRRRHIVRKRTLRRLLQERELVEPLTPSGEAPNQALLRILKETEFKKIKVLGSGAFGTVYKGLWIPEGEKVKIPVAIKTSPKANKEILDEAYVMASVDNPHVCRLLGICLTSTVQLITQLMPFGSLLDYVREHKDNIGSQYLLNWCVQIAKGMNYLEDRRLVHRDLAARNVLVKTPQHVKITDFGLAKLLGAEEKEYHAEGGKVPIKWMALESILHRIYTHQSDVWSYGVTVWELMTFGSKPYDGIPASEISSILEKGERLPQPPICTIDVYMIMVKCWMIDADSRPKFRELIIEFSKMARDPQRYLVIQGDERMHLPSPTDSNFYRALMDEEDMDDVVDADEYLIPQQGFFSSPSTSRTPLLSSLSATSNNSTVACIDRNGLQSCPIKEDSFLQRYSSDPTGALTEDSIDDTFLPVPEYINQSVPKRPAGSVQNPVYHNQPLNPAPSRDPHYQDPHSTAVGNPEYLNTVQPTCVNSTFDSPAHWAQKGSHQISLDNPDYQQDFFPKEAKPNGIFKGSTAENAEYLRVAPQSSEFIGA

SMILES	IC50 [1] [nM]	IC50 [2] [nM]	IC50 [3] [nM]	IC50 [4] [nM]	IC50 [5] [nM]	IC50 [6] [nM]	IC50 [7] [nM]	IC50 [8] [nM]	IC50 [9] [nM]	IC50 [10] [nM]	IC50 [11] [nM]	IC50 [12] [nM]	IC50 [13] [nM]
CCOc1nn(CCO)c2c1/C=C/c1n[nH]c3cnc(cc13)-c1c(C)nn(C)c1OC[C@H](C)N(C(C)C)C2 [Ex. 2, 2-[(11S,17E)-16-ethoxy-6,8,11-trimethyl-12-(propan-2-yl)-2,8,10,11,12,13-hexahydro-14H-5,3-(azenometheno)tripyrazolo[3,4-f:3′,4′-j:4″,3″-n][1,4]oxazacyclopentadecin-14-yl]ethan-1-ol]	0.39	0.79	9.27	0.71	0.13	1.34	0.22	1.35	0.71	8.82	0.63	1.81	0.9
CCOc1nn(CCO)c2c1/C=C/c1n[nH]c3cnc(cc13)-c1cnn(C)c1O[C@@H](C)CN(C1CC1)C2 [Ex. 30, 2-[(10S,17E)-12-cyclopropyl-16-ethoxy-8,10-dimethyl-2,8,10,11,12,13-hexahydro-14H-5,3-(azenometheno)tripyrazolo[3,4-f:3,4′-j:4″,3″-n][1,4]oxazacyclopentadecin-14-yl]ethan-1-ol]	0.5	0.19	14	0.15	0.14	3.31	0.15	3.64	0.65	1.96	0.49	4.44	1.02
CCOc1nn(CCO)c2c1/C=C/c1n[nH]c3cnc(cc13)-c1c(C)nn(C)c1O[C@@H](C)[C@H]1CCCN1C2 [Ex. 32, 2-[(8aR,9S,19E)-1-ethoxy-9,11,13-trimethyl-7,8,8a,9,11,17-hexahydro-6H-14,16-(azenometheno)tripyrazolo[3,4-f:3′,4′-j:4″,3″-n]pyrrolo[2,1-c][1,4]oxazacyclopentadecin-3(4H)-yl]ethan-1-ol]	0.25	0.77	9.53	0.63	0.07	1.48	0.33	1.08	0.48	1.39	1.09	0.54	0.87
CCOc1nn(CCO)c2c1/C=C/c1n[nH]c3cnc(cc13)-c1c(C)nn(C)c1O[C@H](C)[C@H]1CCCN1C2 [Ex. 33, 2-[(8aR,9R,19E)-1-ethoxy-9,11,13-trimethyl-7,8,8a,9,11,17-hexahydro-6H-14,16-(azenometheno)tripyrazolo[3,4-f:3′,4′-j:4″,3″-n]pyrrolo[2,1-c][1,4]oxazacyclopentadecin-3(4H)-yl]ethan-1-ol]	0.44	0.31	17.6	0.17	0.11	2.38	0.15	1.5	1.07	1.1	0.66	0.58	1.6
CCOc1nn([C@@H](C)CO)c2c1/C=C/c1n[nH]c3cnc(cc13)-c1c(C)nn(C)c1O[C@H](C)CN(C)C2 [Ex. 35, (2S)-2-[(10R,17E)-16-ethoxy-6,8,10,12-tetramethyl-2,8,10,11,12,13-hexahydro-14H-5,3-(azenometheno)tripyrazolo[3,4-f:3′,4′-j:4″,3″-n][1,4]oxazacyclopentadecin-14-yl]propan-1-ol]	0.51	0.41	15.1	0.24	0.14	1.25	0.22	1.56	0.46	3.05	0.66	2.56	0.89
CCOc1nn(CCO)c2c1/C=C/c1n[nH]c3c(C)nc(cc13)-c1cnn(C)c1O[C@H](C)CN(C)C2 [Ex. 38, 2-[(10R,17E)-16-ethoxy-8,10,12,20-tetramethyl-2,8,10,11,12,13-hexahydro-14H-5,3-(azenometheno)tripyrazolo[3,4-f:3′,4′-j:4″,3″-n][1,4]oxazacyclopentadecin-14-yl]ethan-1-ol]	7.9	0.25	47.5	1.9	6.5	3.11	0.24	18.8	22.1	27.1	0.54	48.8	4.01
CCOc1nn(CCO)c2c1/C=C/c1n[nH]c3cnc(cc13)-c1c(C)nn(C)c1OC[C@H]1CCCN1C2 [Ex. 39]	0.63	0.5	22.7	0.48	0.27	2.18	0.32	2.11	6.08	26.4	0.85	6.57	1.87
CCOc1nn(CCO)c2c1/C=C/c1n[nH]c3cnc(cc13)-c1c(C)nn(C)c1O[C@@H](C)CN(C)C2 [Ex. 44, 2-[(10S,17E)-16-ethoxy-6,8,10,12-tetramethyl-2,8,10,11,12,13-hexahydro-14H-5,3-(azenometheno)tripyrazolo[3,4-f:3′,4′-j:4″,3″-n][1,4]oxazacyclopentadecin-14-yl]ethan-1-ol]	0.29	0.57	9.94	0.17	0.05	1.92	0.26	1.01	1.18	1.05	0.62	0.84	0.57
